Columns and labels:
[1] = system: development of normal blood vessels; assay: zebrafish embryo model, development of normal blood vessels; assay type: in vivo, zebrafish (Danio rerio); details: for effect on the development of normal blood vessels: lower concentrations (below 2.5 μmol: 50 nmol, 100 nmol, 500 nmol, 1 μmol)
Method: (§1) In studies on the effect of various substances on VEGF release and action, among others, a laboratory model using zebrafish (Danio rerio) is employed. The study tested 3 substances with potential inhibitory activity towards VEGF release and action which belong to the group of dopaminergic receptor D2 agonists—bromocriptine, cabergoline and pergolide. The study was conducted on the model using transgenic zebrafish embryos (Zebrafish Fli strain) with labelled blood system, illuminating under the fluorescent microscope. Photographic documentation was collected using Stereo Discover v8 fluorescent microscope, fluorescence 200c hxp, from Carl Zeiss Microscopy GmbH. During the study, the development of normal blood vessels and pathological blood vessels (abnormal angiogenesis) was observed. Abnormal angiogenesis was induced with the use of cobalt chloride (CoCl2) in a dose of 5 mM which was administered to the culture medium. The study tested the inhibitory effect of bromocriptine, cabergoline and pergolide on the development of normal blood vessels, as well as the inhibition of abnormal angiogenesis in 5 increasing concentrations of these substances: 50 nmol, 100 nmol, 500 nmol, 1 μmol, 2.5 μmol, dissolved in dimethyl sulfoxide (DMSO) and administered to the culture medium. Any changes in the development of natural (FIG. 1) and pathological blood vessels (FIG. 2) were recorded 72 an 96 hours after the administration of a tested substance and a tested substance with CoCl2, respectively. The level of inhibition of normal and pathological blood vessels development in tested embryos was compared to the activity of bevacizumab (Avastin) at the concentration of 2.5 μg/ml, which is an anti-VEGF recombinant humanised monoclonal antibody (FIGS. 3).

[2] = system: pathological blood vessels (abnormal angiogenesis) induced with CoCl2; assay: zebrafish embryo model, CoCl2-induced abnormal angiogenesis; assay type: in vivo, zebrafish (Danio rerio); details: for effect on the development of pathological blood vessels: lower concentrations (below 2.5 μmol: 50 nmol, 100 nmol, 500 nmol, 1 μmol); for effect on the development of pathological blood vessels / inhibition of growth of pathological eye blood vessels / inhibition of growth of ventral vessels: CoCl2 5 mM; for inhibitory effect compared with other agents: qualitative comparison in the angiogenesis model
Method: as §1, with “3). 72 and 96 after CoCl2 administration, the increase in the number of pathological eye blood vessels and the abnormal morphology thereof in the eyes (FIG. 2) as well as of ventral vessels (FIGS. 4 and 5) was observed.” for “3).”

[3] = 2.5 μmol in culture medium, transgenic Zebrafish Fli embryos, recorded 72 and 96 hours
[4] = 2.5 μmol in culture medium, recorded 72 and 96 hours

Molecule	effect on the development of normal blood vessels [1]	effect on the development of pathological blood vessels [2]	inhibition of growth of normal eye blood vessels [1, 3]	inhibition of growth of pathological eye blood vessels [2, 4]	inhibition of growth of ventral vessels [2, 4]	inhibition of abnormal ventral vessels growth ([2]; 2.5 μmol, 72 hours, FIG. 8)	effect on the development of ventral vessels ([2]; lower concentrations (below 2.5 μmol))	inhibitory effect compared with other agents [2]	inhibition of growth of normal eye blood vessels ([1]; 1.0 μmol in culture medium)	inhibition of normal ventral vessels growth ([1]; 1 μmol, 72 hours, FIG. 9)	inhibition of growth of pathological eye blood vessels ([2]; 1.0 μmol in culture medium)	inhibition of growth of ventral vessels ([2]; 1.0 μmol in culture medium)	inhibitory effect on the development of normal and pathological blood vessels (overall conclusion) ([2]; conclusion from all concentrations tested)	inhibition of CoCl2-induced abnormal vascular growth (eye) ([2]; 2.5 μmol, 96 hours, FIG. 3)
CC(C)C[C@H]1C(=O)N2CCC[C@H]2[C@]2(O)O[C@](NC(=O)[C@@H]3C=C4c5cccc6[nH]c(Br)c(c56)C[C@H]4N(C)C3)(C(C)C)C(=O)N12 [bromocriptine]	no inhibitory effect	no inhibitory effect	–	–	–	–	–	–	–	–	–	–	–	–
C=CCN1C[C@H](C(=O)N(CCCN(C)C)C(=O)NCC)C[C@@H]2c3cccc4[nH]cc(c34)C[C@H]21 [cabergoline]	no significant effect	no significant effect	partial inhibition	full inhibition	full inhibition	Full inhibition	no significant effect	more potent compared to bromocriptine	–	–	–	–	–	–
CCCN1C[C@H](CSC)C[C@@H]2c3cccc4[nH]cc(c34)C[C@H]21 [pergolide]	–	–	full inhibition	full inhibition	full inhibition	–	–	more potent than for known agents	partial inhibition	Partial inhibition	full inhibition	full inhibition	potent inhibitory effect	–
bevacizumab	–	–	–	–	–	–	–	–	–	–	–	–	–	Inhibition

Source: patent US20200289480A1, “PERGOLIDE FOR USE IN THE TREATMENT OF EYE DISEASES ASSOCIATED WITH AN ELEVATED LEVEL OF VASCULAR ENDOTHELIAL GROWTH FACTOR (VEGF) AND PHARMACEUTICAL COMPOSITION CONTAINING PERGOLIDE” (priority 2017, published 2020)
